From US9440960B2, “Substituted oxetanes and their use as inhibitors of cathepsin C” (Boehringer Ingelheim International GmbH, priority 2014, dated 2016)
pIC50: −log10 of the molar value.

Target: T1, recombinant human DPPI (Cathepsin C) (Homo sapiens, UniProt P53634)
T1 construct: purchased Prozymex
Assay: Inhibition of Human DPPI (Cathepsin C)
Assay type: biochemical
Settings: substrate Gly-Arg-AMC 50 μM, MES buffer pH 6.0, 30 min at room temperature, fluorescence readout
Source text: Inhibition of Human DPPI (Cathepsin C)
Materials: Microtiterplates (Optiplate-384 F) were purchased from PerkinElmer (Prod.No. 10 6007270). The substrate Gly-Arg-AMC was from Biotrend (Prod.-No. 808756 Custom peptide).
Bovine serum albumin (BSA; Prod.No. A3059) and Dithiothreitol (DTT; Prod.No D0632) were from Sigma. TagZyme buffer was from Riedel-de-Haen (Prod.-No. 04269), NaCl was from Merck (Prod.-No. 1.06404.1000) and morpholinoethane sulfonic acid (MES), was from Serva (Prod.-No.
29834). The DPP1 inhibitor Gly-Phe-DMK was purchased from MP Biomedicals 15 (Prod.-No. 03DK00625). The recombinant human DPPI was purchased from Prozymex. All other materials were of highest grade commercially available.
The following buffers were used: MES buffer: 25 mM MES, 50 mM NaCl, 5 mM DTT, adjusted to pH 6.0, containing 0.1% BSA; TAGZyme Buffer: 20 mM NaH2PO4, 150 mM NaCl adjusted to pH […]
Assay conditions: The recombinant human DPPI was diluted in TAGZyme buffer to 1 U/ml (38.1 μg/ml, respectively), and then activated by mixing in a 1:2 ratio with a Cysteamine aqueous solution (2 mM) and incubating for 5 min at room temperature.
Five uL test compound (final concentration 0.1 nM to 100 μM) in aqua bidest 5 (containing 4% DMSO, final DMSO concentration 1%) were mixed with 10 μL of DPPI in MES buffer (final concentration 0.0125 ng/μL) and incubated for 10 min. Then, 5 μL of substrate in MES buffer (final concentration 50 μM) were added. The microtiter plates were then incubated at room temperature for 30 min. Then, the reaction was stopped by adding 10 μL of Gly-Phe-DMK in 10 MES-buffer (final concentration 1 μM). The fluorescence in the wells was determined using a Molecular Devices SpectraMax M5 Fluorescence Reader (Ex 360 nm, Em 460 nm) or an Envision Fluorescence Reader (Ex 355 nm, Em 460 nm).
Each assay microtiter plate contained wells with vehicle controls (1% DMSO in bidest+0.075% 15 BSA) as reference for non-inhibited enzyme activity (100% Ctl; high values) and wells with inhibitor (Gly-Phe-DMK, in bidest+1% DMSO+0.075% BSA, final concentration 1 μM) as controls for background fluorescence (0% Ctl; low values).
The analysis of the data was performed by calculating the percentage of fluorescence in the presence of test compound in comparison to the fluorescence of the vehicle control after 20 subtracting the background fluorescence using the following formula: (RFU(sample)−RFU(background))*100/(RFU(control)−RFU(background)) […]
Data from these calculations were used to generate IC50 values for inhibition of DPPI, respectively.

T1 sequence (P53634 231-394 limits assumed): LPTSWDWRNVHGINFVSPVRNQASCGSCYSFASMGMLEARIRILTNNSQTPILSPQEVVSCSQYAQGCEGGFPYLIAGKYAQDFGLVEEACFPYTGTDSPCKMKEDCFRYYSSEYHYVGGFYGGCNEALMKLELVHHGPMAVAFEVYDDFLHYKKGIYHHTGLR
T1 sequence (P53634 395-463 limits assumed): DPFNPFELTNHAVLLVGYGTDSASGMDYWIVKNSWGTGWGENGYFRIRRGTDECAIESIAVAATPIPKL
T1 sequence (P53634 25-143 limits assumed): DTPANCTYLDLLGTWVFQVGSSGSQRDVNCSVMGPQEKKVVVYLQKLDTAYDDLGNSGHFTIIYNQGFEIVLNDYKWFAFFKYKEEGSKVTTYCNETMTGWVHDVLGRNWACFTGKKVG

| SMILES | pIC50 |
| --- | --- |
| N#C[C@H](Cc1ccc(N2CCN(C3COC3)CC2)cc1F)NC(=O)[C@H]1N[C@@H]2CC[C@H]1C2 [Example 1, (1S,2S,4R)—N-[(1S)-1-cyano-2-[2-fluoro-4-[4-(oxetan-3-yl)piperazin-1-yl]phenyl]ethyl]-3-azabicyclo[2.2.1]heptane-2-carboxamide] | 7.93 |
| N#C[C@H](Cc1ccc(N2C3CCC2CN(C2COC2)C3)cc1F)NC(=O)[C@H]1N[C@@H]2CC[C@H]1C2 [Example 2] | 7.84 |
| N#C[C@H](Cc1ccc(N2CC3(C2)CN(C2COC2)C3)cc1F)NC(=O)[C@H]1N[C@@H]2CC[C@H]1C2 [Example 3] | 7.67 |
| N#C[C@H](Cc1ccc(C2=CCN(C3COC3)CC2)cc1F)NC(=O)[C@H]1N[C@@H]2CC[C@H]1C2 [Example 4, (1S,2S,4R)—N-[(1S)-1-cyano-2-[2-fluoro-4-[1-(oxetan-3-yl)-3,6-dihydro-2H-pyridin-4-yl]phenyl]ethyl]-3-azabicyclo[2.2.1]heptane-2-carboxamide] | 8.25 |
| N#C[C@H](Cc1ccc(N2CC3CN(C4COC4)CC3C2)cc1F)NC(=O)[C@H]1N[C@@H]2CC[C@H]1C2 (stereo partly drawn) [Example 5, (1S,2S,4R)—N-[(1S)-1-cyano-2-[2-fluoro-4-[5-(oxetan-3-yl)-1,3,3a,4,6,6a-hexahydropyrrolo[3,4-c]pyrrol-2-yl]phenyl]ethyl]-3-azabicyclo[2.2.1]heptane-2-carboxamide] | 7.78 |
| N#C[C@H](Cc1ccc(N2CC3CCN(C4COC4)C3C2)cc1F)NC(=O)[C@H]1N[C@@H]2CC[C@H]1C2 (stereo partly drawn) [Example 6] | 7.87 |
| N#C[C@H](Cc1ccc(N2CCC3CN(C4COC4)CC32)cc1F)NC(=O)[C@H]1N[C@@H]2CC[C@H]1C2 (stereo partly drawn) [Example 7] | 8.00 |
| N#C[C@H](Cc1ccc(N2CCC3C2CCN3C2COC2)cc1F)NC(=O)[C@H]1N[C@@H]2CC[C@H]1C2 (stereo partly drawn) [Example 8] | 7.45 |
| N#C[C@H](Cc1ccc(N2CCC3C2CCN3C2COC2)cc1F)NC(=O)[C@H]1N[C@@H]2CC[C@H]1C2 (stereo partly drawn) [Example 9] | 7.75 |
| N#C[C@H](Cc1ccc(C2CCN(C3COC3)CC2)cc1F)NC(=O)[C@H]1N[C@@H]2CC[C@H]1C2 [Example 10, (1S,2S,4R)—N-[(1S)-1-cyano-2-[2-fluoro-4-[1-(oxetan-3-yl)-4-piperidyl]phenyl]ethyl]-3-azabicyclo[2.2.1]heptane-2-carboxamide] | 7.22 |
| N#C[C@H](Cc1ccc(C2CCCN(C3COC3)C2)cc1F)NC(=O)[C@H]1N[C@@H]2CC[C@H]1C2 (stereo partly drawn) [Example 11] | 7.28 |
| N#C[C@H](Cc1ccc(C2CCN(C3COC3)C2)cc1F)NC(=O)[C@H]1N[C@@H]2CC[C@H]1C2 (stereo partly drawn) [Example 12] | 7.53 |
| N#C[C@H](Cc1ccc(C2CC3CN(C4COC4)CC3C2)cc1F)NC(=O)[C@H]1N[C@@H]2CC[C@H]1C2 (stereo partly drawn) [Example 13] | 7.10 |
| N#C[C@H](Cc1ccc(C2CC3CN(C4COC4)CC3C2)cc1F)NC(=O)[C@H]1N[C@@H]2CC[C@H]1C2 (stereo partly drawn) [Example 14] | 7.53 |
| N#C[C@H](Cc1ccc(N2CCN(C3COC3)CC2)cc1F)NC(=O)C12CCC(CC1)CN2 [Example 15, N-[(1S)-1-cyano-2-[2-fluoro-4-[4-(oxetan-3-yl)piperazin-1-yl]phenyl]ethyl]-2-azabicyclo[2.2.2]octane-1-carboxamide] | 7.18 |
